Measurements as given in publication PMC11864979, “First-in-class ultralong-target-residence-time p38α inhibitors as a mitosis-targeted therapy for colorectal cancer” (Nature Cancer, 2025).
Where two headings read alike, the source gives them in different places.

Experiments:
Test in all cases: selectivity profiling in a panel of 340 wild-type kinases (Reaction Biology Europe)
Format in all cases: binding
[1] = biological target: T1, 340 wild-type kinases (Homo sapiens, UniProt P36888)
T1 construct: purchased Reaction Biology Europe
T1 sequence (P36888 27-993): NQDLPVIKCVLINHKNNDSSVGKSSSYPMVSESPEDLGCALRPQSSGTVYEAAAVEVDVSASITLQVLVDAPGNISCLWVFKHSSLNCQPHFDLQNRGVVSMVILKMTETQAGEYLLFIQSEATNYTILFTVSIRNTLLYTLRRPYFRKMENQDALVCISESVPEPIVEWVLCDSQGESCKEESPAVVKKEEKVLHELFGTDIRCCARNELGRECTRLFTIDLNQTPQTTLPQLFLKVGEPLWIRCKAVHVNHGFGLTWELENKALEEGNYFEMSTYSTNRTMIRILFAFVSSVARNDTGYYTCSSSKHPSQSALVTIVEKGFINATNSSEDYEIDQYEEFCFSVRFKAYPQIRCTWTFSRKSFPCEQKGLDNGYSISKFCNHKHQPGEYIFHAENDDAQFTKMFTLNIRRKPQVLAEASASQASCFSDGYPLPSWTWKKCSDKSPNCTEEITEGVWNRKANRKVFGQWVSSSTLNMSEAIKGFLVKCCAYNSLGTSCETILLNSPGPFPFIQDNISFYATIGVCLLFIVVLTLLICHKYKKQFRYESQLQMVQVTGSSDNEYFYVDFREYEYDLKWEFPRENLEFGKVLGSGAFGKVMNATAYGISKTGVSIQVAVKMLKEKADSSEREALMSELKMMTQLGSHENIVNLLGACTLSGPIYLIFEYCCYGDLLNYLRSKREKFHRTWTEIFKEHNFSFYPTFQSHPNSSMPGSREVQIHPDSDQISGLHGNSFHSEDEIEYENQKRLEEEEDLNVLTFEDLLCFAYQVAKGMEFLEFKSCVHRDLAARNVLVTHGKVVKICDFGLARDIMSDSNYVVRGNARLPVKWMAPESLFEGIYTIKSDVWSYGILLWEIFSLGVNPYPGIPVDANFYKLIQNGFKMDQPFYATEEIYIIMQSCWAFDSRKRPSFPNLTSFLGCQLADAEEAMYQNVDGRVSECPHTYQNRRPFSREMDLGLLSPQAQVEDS

[2] = biological target: T2, 340 wild-type kinases (Homo sapiens, UniProt P29597)
T2 construct: purchased Reaction Biology Europe

[3] = biological target: T3, 340 wild-type kinases (Homo sapiens, UniProt O75676)
T3 construct: purchased Reaction Biology Europe

[4] = biological target: T4, 340 wild-type kinases (Homo sapiens, UniProt P29317)
T4 construct: purchased Reaction Biology Europe

[5] = biological target: T5, 340 wild-type kinases (Homo sapiens, UniProt Q13470)
T5 construct: purchased Reaction Biology Europe
T5 sequence (Q13470 1-666): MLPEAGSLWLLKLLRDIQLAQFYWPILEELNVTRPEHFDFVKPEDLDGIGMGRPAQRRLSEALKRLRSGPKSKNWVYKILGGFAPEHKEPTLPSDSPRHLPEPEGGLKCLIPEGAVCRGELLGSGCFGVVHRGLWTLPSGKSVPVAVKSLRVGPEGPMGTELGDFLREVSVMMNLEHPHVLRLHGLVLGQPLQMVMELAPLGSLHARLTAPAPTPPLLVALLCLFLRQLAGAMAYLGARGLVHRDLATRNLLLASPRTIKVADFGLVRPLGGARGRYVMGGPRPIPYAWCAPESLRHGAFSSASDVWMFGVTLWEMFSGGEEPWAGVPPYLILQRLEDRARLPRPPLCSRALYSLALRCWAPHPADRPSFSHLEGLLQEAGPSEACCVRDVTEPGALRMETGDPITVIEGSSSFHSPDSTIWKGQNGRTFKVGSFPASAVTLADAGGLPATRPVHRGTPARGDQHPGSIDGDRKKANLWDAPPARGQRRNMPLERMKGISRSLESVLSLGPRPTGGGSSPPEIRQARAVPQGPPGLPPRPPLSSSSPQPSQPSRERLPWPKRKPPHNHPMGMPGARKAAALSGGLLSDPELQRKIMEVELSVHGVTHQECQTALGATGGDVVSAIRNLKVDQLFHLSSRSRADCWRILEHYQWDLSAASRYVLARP

[6] = biological target: T6, 340 wild-type kinases (Homo sapiens, UniProt P51957)
T6 construct: purchased Reaction Biology Europe
T6 sequence (P51957 whole entry): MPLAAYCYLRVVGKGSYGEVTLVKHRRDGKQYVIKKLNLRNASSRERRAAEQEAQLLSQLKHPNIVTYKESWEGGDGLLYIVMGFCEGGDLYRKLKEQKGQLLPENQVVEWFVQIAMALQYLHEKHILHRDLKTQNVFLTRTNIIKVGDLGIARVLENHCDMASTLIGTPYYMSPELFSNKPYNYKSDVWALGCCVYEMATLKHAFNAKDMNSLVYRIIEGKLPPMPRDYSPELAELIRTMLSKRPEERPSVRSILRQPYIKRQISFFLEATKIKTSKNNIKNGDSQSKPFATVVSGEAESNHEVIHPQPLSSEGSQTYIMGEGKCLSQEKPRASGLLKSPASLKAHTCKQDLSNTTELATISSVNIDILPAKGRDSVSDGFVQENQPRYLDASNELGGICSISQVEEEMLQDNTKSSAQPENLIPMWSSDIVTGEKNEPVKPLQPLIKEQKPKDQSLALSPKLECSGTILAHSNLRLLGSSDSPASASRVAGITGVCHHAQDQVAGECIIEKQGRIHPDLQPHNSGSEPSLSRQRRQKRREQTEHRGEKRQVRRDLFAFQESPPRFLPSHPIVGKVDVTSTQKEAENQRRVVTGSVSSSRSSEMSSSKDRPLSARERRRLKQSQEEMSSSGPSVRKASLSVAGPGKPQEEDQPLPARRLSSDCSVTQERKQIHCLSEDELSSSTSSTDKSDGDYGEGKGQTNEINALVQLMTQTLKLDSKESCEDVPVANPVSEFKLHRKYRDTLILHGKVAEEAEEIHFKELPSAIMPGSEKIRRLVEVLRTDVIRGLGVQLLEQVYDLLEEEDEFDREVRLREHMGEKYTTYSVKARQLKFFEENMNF

T4 sequence (P29317 24-976): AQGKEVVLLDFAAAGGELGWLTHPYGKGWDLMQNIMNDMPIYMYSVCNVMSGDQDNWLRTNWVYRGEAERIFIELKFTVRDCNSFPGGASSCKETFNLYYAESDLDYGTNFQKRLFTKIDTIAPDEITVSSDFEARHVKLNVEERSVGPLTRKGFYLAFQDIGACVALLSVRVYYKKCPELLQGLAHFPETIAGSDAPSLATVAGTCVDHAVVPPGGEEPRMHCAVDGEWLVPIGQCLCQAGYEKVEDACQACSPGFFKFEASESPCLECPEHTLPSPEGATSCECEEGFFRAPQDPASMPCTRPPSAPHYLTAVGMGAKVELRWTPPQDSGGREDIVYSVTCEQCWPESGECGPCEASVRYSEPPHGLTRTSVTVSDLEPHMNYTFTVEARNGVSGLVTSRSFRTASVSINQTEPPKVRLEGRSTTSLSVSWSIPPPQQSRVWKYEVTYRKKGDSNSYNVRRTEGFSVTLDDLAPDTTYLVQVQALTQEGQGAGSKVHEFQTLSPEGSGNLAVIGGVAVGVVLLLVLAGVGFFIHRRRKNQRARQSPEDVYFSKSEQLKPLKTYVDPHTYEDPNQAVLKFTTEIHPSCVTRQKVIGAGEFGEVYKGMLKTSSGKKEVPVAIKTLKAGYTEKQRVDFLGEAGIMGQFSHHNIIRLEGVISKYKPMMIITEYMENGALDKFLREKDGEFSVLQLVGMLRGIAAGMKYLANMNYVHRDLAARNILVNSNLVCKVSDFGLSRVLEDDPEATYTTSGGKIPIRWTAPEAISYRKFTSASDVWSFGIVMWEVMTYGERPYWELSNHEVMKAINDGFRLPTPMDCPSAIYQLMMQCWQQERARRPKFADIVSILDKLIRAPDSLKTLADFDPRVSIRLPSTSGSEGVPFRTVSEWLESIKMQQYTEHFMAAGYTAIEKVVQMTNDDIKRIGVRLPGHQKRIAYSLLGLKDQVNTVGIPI
T2 sequence (P29597 whole entry): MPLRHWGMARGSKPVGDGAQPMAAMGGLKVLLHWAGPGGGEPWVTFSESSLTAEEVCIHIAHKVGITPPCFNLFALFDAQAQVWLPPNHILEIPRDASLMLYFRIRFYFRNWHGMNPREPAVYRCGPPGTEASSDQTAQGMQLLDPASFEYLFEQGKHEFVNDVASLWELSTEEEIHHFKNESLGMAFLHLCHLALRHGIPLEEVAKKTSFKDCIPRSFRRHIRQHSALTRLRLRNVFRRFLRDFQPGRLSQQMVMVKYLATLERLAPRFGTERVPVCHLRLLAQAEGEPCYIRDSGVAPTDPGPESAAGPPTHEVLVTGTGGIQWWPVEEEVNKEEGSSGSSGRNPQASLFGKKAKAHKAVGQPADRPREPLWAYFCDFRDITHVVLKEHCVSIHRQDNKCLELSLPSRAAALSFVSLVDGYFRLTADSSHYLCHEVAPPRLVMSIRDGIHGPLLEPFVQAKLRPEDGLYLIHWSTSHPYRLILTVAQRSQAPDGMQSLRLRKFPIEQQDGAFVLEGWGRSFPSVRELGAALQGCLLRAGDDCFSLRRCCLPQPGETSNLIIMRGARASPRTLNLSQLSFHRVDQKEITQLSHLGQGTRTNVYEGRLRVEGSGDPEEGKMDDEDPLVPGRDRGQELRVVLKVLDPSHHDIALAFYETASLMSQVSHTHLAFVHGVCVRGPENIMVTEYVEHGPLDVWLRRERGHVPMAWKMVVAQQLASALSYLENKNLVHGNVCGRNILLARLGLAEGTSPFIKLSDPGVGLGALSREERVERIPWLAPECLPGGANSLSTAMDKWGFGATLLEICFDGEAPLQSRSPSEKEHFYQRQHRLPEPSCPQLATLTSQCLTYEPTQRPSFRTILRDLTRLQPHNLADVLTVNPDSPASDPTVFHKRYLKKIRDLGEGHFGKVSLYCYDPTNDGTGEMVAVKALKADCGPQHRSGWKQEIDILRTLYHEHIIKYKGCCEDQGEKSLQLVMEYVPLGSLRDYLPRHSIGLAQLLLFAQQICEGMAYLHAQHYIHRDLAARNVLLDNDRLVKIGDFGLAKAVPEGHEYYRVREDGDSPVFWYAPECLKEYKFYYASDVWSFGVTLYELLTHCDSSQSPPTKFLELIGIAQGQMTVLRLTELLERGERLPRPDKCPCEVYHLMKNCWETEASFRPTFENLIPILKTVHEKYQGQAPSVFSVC
T3 sequence (O75676 whole entry): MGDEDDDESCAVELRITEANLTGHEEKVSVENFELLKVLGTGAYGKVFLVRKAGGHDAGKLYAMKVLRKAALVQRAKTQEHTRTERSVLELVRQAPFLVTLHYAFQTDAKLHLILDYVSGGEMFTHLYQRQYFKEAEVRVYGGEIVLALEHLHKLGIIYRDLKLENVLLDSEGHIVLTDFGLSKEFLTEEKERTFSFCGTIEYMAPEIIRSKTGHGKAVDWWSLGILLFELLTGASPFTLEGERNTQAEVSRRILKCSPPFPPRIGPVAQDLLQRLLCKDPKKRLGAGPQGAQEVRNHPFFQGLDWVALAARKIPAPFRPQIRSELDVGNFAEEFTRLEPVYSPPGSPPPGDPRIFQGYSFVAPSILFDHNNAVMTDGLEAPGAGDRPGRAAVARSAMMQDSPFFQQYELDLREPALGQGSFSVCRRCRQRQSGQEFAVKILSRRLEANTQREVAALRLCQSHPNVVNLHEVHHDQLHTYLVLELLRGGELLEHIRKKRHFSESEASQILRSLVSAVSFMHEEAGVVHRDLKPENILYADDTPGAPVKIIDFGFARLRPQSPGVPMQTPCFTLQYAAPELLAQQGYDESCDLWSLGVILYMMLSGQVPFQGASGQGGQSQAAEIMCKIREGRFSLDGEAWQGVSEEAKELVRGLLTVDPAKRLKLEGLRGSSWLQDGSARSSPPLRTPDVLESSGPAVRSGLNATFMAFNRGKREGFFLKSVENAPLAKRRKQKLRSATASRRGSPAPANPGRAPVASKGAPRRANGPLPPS

## CNC(=O)c1ccc2c(c1)C(=O)c1ccc(Nc3ccc(F)c(NC(=O)C4CC4)c3)cc1CC2 [Compound 2015]
[1]; 0.2 µM 2015, read-out: FLT3 residual activity
  remaining activity at 0.2 µM: 84.5%
[1]; 1 µM 2015, read-out: FLT3 residual activity
  remaining activity at 1 µM: 80%
[1]; FLT3, 0.2 µM, read-out: residual activity
  remaining activity at 0.2 µM: 84.5%
[1]; FLT3, 1 µM, read-out: residual activity
  remaining activity at 1 µM: 80%
[2]; 0.2 µM 2015, read-out: TYK2 residual activity
  remaining activity at 0.2 µM: 103%
[2]; 1 µM 2015, read-out: TYK2 residual activity
  remaining activity at 1 µM: 96.3%
[2]; TYK2, 0.2 µM, read-out: residual activity
  remaining activity at 0.2 µM: 103%
[2]; TYK2, 1 µM, read-out: residual activity
  remaining activity at 1 µM: 96.3%
[3]; 0.2 µM 2015, read-out: RPS6KA4 residual activity
  remaining activity at 0.2 µM: 95.3%
[3]; 1 µM 2015, read-out: RPS6KA4 residual activity
  remaining activity at 1 µM: 89.4%
[3]; RPS6KA4, 0.2 µM, read-out: residual activity
  remaining activity at 0.2 µM: 95.3%
[3]; RPS6KA4, 1 µM, read-out: residual activity
  remaining activity at 1 µM: 89.4%
[4]; 0.2 µM 2015, read-out: EPHA2 residual activity
  remaining activity at 0.2 µM: 98.4%
[4]; 1 µM 2015, read-out: EPHA2 residual activity
  remaining activity at 1 µM: 102%
[4]; EPHA2, 0.2 µM, read-out: residual activity
  remaining activity at 0.2 µM: 98.4%
[4]; EPHA2, 1 µM, read-out: residual activity
  remaining activity at 1 µM: 102%
[5]; 0.2 µM 2015, read-out: TNK1 residual activity
  remaining activity at 0.2 µM: 92.8%
[5]; 1 µM 2015, read-out: TNK1 residual activity
  remaining activity at 1 µM: 85.3%
[5]; TNK1, 0.2 µM, read-out: residual activity
  remaining activity at 0.2 µM: 92.8%
[5]; TNK1, 1 µM, read-out: residual activity
  remaining activity at 1 µM: 85.3%
[6]; 0.2 µM 2015, read-out: NEK4 residual activity
  remaining activity at 0.2 µM: 105%
[6]; 1 µM 2015, read-out: NEK4 residual activity
  remaining activity at 1 µM: 101%
[6]; NEK4, 0.2 µM, read-out: residual activity
  remaining activity at 0.2 µM: 105%
[6]; NEK4, 1 µM, read-out: residual activity
  remaining activity at 1 µM: 101%
